# Measurements: ChEMBL document CHEMBL5543097, “Synthesis and structure-activity relationships of novel 14-membered 2-fluoro ketolides with structural modification at the C11 position” (Eur J Med Chem, 2024)
# Calls of active or inactive are those of the source. No cut-off for these calls is given here.
# How the values were obtained:
# Streptococcus pyogenes = assay: Antibacterial activity against erythromycin-resistant Streptococcus pyogenes ATCC 19615 assessed as inhibition of visible bacterial growth incubated for 18 hrs by broth microdilution method; assay type: functional
# Streptococcus agalactiae [1] = assay: Antibacterial activity against erythromycin-resistant Streptococcus agalactiae 19-9 assessed as inhibition of visible bacterial growth incubated for 18 hrs by broth microdilution method; assay type: functional
# Streptococcus pneumoniae [2] = assay: Antibacterial activity against erythromycin-resistant Streptococcus pneumoniae SPN19-14 assessed as inhibition of visible bacterial growth incubated for 18 hrs by broth microdilution method; assay type: functional
# Streptococcus pneumoniae [3] = assay: Antibacterial activity against erythromycin-resistant Streptococcus pneumoniae SPN19-13 assessed as inhibition of visible bacterial growth incubated for 18 hrs by broth microdilution method; assay type: functional
# Streptococcus pneumoniae [4] = assay: Antibacterial activity against erythromycin-resistant Streptococcus pneumoniae SPN19-8 assessed as inhibition of visible bacterial growth incubated for 18 hrs by broth microdilution method; assay type: functional
# [5] = system: Staphylococcus epidermidis; assay: Antibacterial activity against erythromycin-resistant Staphylococcus epidermidis 19-11 assessed as inhibition of visible bacterial growth incubated for 18 hrs by broth microdilution method; assay type: functional
# [6] = system: Staphylococcus epidermidis; assay: Antibacterial activity against erythromycin-resistant Staphylococcus epidermidis 19-9 assessed as inhibition of visible bacterial growth incubated for 18 hrs by broth microdilution method; assay type: functional
# [7] = system: Staphylococcus epidermidis; assay: Antibacterial activity against erythromycin-resistant Staphylococcus epidermidis 19-8 assessed as inhibition of visible bacterial growth incubated for 18 hrs by broth microdilution method; assay type: functional
# [8] = system: Staphylococcus epidermidis; assay: Antibacterial activity against erythromycin-resistant Staphylococcus epidermidis 19-6 assessed as inhibition of visible bacterial growth incubated for 18 hrs by broth microdilution method; assay type: functional
# [9] = system: Staphylococcus epidermidis; assay: Antibacterial activity against erythromycin-resistant Staphylococcus epidermidis 19-4 assessed as inhibition of visible bacterial growth incubated for 18 hrs by broth microdilution method; assay type: functional
# [10] = system: Staphylococcus epidermidis; assay: Antibacterial activity against erythromycin-resistant Staphylococcus epidermidis 19-5 assessed as inhibition of visible bacterial growth incubated for 18 hrs by broth microdilution method; assay type: functional
# Moraxella catarrhalis [11] = assay: Antibacterial activity against Moraxella catarrhalis BCA 19-5 assessed as inhibition of bacterial growth incubated for 24 hrs by CLSI based broth microdilution method; assay type: functional; conditions: Moraxella catarrhalis, BCA 19-5, 24 h, read-out: MIC
# Moraxella catarrhalis [12] = assay: Antibacterial activity against Moraxella catarrhalis BCA 19-6 assessed as inhibition of bacterial growth incubated for 24 hrs by CLSI based broth microdilution method; assay type: functional; conditions: Moraxella catarrhalis, BCA 19-6, 24 h, read-out: MIC
# Moraxella catarrhalis [13] = assay: Antibacterial activity against Moraxella catarrhalis BCA 19-31 assessed as inhibition of bacterial growth incubated for 24 hrs by CLSI based broth microdilution method; assay type: functional; conditions: BCA 19-31, 24 h
# Haemophilus influenzae [14] = assay: Antibacterial activity against Haemophilus influenzae HIN 19-15 assessed as inhibition of bacterial growth incubated for 20 to 24 hrs by CLSI based broth microdilution method; assay type: functional; conditions: time 20-24 hrs
# Haemophilus influenzae [15] = assay: Antibacterial activity against Haemophilus influenzae HIN 19-18 assessed as inhibition of bacterial growth incubated for 20 to 24 hrs by CLSI based broth microdilution method; assay type: functional; conditions: HIN 19-18, time 20-24 hrs
# Haemophilus influenzae [16] = assay: Antibacterial activity against Haemophilus influenzae HIN 20-18 assessed as inhibition of bacterial growth incubated for 20 to 24 hrs by CLSI based broth microdilution method; assay type: functional; conditions: time 20-24 hrs
# Staphylococcus aureus = assay: Antibacterial activity against Staphylococcus aureus ATCC 700699 assessed as inhibition of visible bacterial growth; assay type: functional
# [17] = Cytotoxicity against mouse AML12 cells assessed as reduction in cell viability incubated for 48 hrs by MTT assay; assay type: toxicity, cell-based
# Streptococcus agalactiae [18] = assay: Antibacterial activity against erythromycin-resistant Streptococcus agalactiae 19-8 assessed as inhibition of visible bacterial growth incubated for 18 hrs by broth microdilution method; assay type: functional
# Streptococcus pneumoniae [19] = assay: Potency index, ratio of telithromycin MIC to test compound MIC for antibacterial activity against Streptococcus pneumoniae SPN19-13 assessed as inhibition of visible bacterial growth incubated for 18 hrs by broth microdilution method; assay type: functional
# Streptococcus pneumoniae [20] = assay: Potency index, ratio of telithromycin MIC to test compound MIC for antibacterial activity against Streptococcus pneumoniae SPN19-8 assessed as inhibition of visible bacterial growth incubated for 18 hrs by broth microdilution method; assay type: functional
# [21] = system: Staphylococcus epidermidis; assay: Potency index, ratio of telithromycin MIC to test compound MIC for antibacterial activity against erythromycin-resistant Staphylococcus epidermidis 19-11 assessed as inhibition of visible bacterial growth incubated for 18 hrs by broth microdilution method; assay type: functional
# [22] = system: Staphylococcus epidermidis; assay: Potency index, ratio of telithromycin MIC to test compound MIC for antibacterial activity against erythromycin-resistant Staphylococcus epidermidis 19-9 assessed as inhibition of visible bacterial growth incubated for 18 hrs by broth microdilution method; assay type: functional
# [23] = system: Staphylococcus epidermidis; assay: Potency index, ratio of telithromycin MIC to test compound MIC for antibacterial activity against erythromycin-resistant Staphylococcus epidermidis 19-8 assessed as inhibition of visible bacterial growth incubated for 18 hrs by broth microdilution method; assay type: functional
# [24] = system: Staphylococcus epidermidis; assay: Potency index, ratio of telithromycin MIC to test compound MIC for antibacterial activity against erythromycin-resistant Staphylococcus epidermidis 19-6 assessed as inhibition of visible bacterial growth incubated for 18 hrs by broth microdilution method; assay type: functional
# [25] = system: Staphylococcus epidermidis; assay: Potency index, ratio of telithromycin MIC to test compound MIC for antibacterial activity against erythromycin-resistant Staphylococcus epidermidis 19-5 assessed as inhibition of visible bacterial growth incubated for 18 hrs by broth microdilution method; assay type: functional
# [26] = system: Staphylococcus epidermidis; assay: Potency index, ratio of telithromycin MIC to test compound MIC for antibacterial activity against erythromycin-resistant Staphylococcus epidermidis 19-4 assessed as inhibition of visible bacterial growth incubated for 18 hrs by broth microdilution method; assay type: functional
# Streptococcus pneumoniae [27] = assay: Potency index, ratio of telithromycin MIC to test compound MIC for antibacterial activity against Streptococcus pneumoniae SPN19-14 assessed as inhibition of visible bacterial growth incubated for 18 hrs by broth microdilution method; assay type: functional
# Escherichia coli = assay: Antibacterial activity against Escherichia coli ATCC 35218 assessed as inhibition of visible bacterial growth; assay type: functional, organism-based
# Enterococcus faecium = assay: Antibacterial activity against vancomycin-resistant Enterococcus faecium assessed as inhibition of visible bacterial growth; assay type: functional
SMILES,MIC (Streptococcus pyogenes) [µg/mL],MIC (Streptococcus agalactiae [1]) [µg/mL],MIC (Streptococcus pneumoniae [2]) [µg/mL],MIC (Streptococcus pneumoniae [3]) [µg/mL],MIC (Streptococcus pneumoniae [4]) [µg/mL],MIC [5] [µg/mL],MIC [6] [µg/mL],MIC [7] [µg/mL],MIC [8] [µg/mL],MIC [9] [µg/mL],MIC [10] [µg/mL],MIC (Moraxella catarrhalis [11]) [µg/mL],MIC (Moraxella catarrhalis [12]) [µg/mL],MIC (Moraxella catarrhalis [13]) [µg/mL],MIC (Haemophilus influenzae [14]) [µg/mL],MIC (Haemophilus influenzae [15]) [µg/mL],MIC (Staphylococcus aureus) [µg/mL],CC50 at 48 h [17] [µM],MIC (Streptococcus agalactiae [18]) [µg/mL],Ratio (Streptococcus pneumoniae [19]),further results
CCOc1ccccc1NC(=O)OCCCN1C(=O)O[C@]2(C)[C@@H](CC)OC(=O)[C@@](C)(F)C(=O)[C@H](C)[C@@H](O[C@@H]3O[C@H](C)C[C@H](N(C)C)[C@H]3O)[C@](C)(OC)C[C@@H](C)C(=O)[C@H](C)[C@@H]12,< 0.03,0.25,0.06,0.06,0.125,0.16,0.5,0.06,0.125,0.06,< 0.03,0.125,0.125,0.03,4,2,16,> 100,–,–,MIC (Haemophilus influenzae [16]): 8 µg/mL
CC[C@H]1OC(=O)[C@H](C)C(=O)[C@H](C)[C@@H](O[C@@H]2O[C@H](C)C[C@H](N(C)C)[C@H]2O)[C@](C)(OC)C[C@@H](C)C(=O)[C@H](C)[C@H]2N(CCCCn3cnc(-c4cccnc4)c3)C(=O)O[C@]12C [TELITHROMYCIN],< 0.03,0.125,0.25,0.25,0.5,0.25,0.5,> 64,64,> 64,0.25,0.25,0.25,0.25,4,4,16,> 100,< 0.03,–,–
CC[C@H]1OC(=O)[C@@](C)(F)C(=O)[C@H](C)[C@@H](O[C@@H]2O[C@H](C)C[C@H](N(C)C)[C@H]2O)[C@](C)(OC)C[C@@H](C)C(=O)[C@H](C)[C@H]2N(CCCOC(=O)Nc3cccc(F)c3)C(=O)O[C@]12C,< 0.03,0.06,< 0.03,< 0.03,< 0.03,< 0.03,< 0.03,< 0.03,< 0.03,< 0.03,< 0.03,< 0.03,< 0.03,< 3,8,4,–,33.7,< 0.03,<4,Ratio (Streptococcus pneumoniae [20]): <4; Ratio [21]: 4; Ratio [22]: 4; Ratio [23]: 4; Ratio [24]: 4; Ratio [25]: 4; Ratio [26]: 4; Ratio (Streptococcus pneumoniae [27]): <4; Activity (Escherichia coli): Active
CC[C@H]1OC(=O)[C@@](C)(F)C(=O)[C@H](C)[C@@H](O[C@@H]2O[C@H](C)C[C@H](N(C)C)[C@H]2O)[C@](C)(OC)C[C@@H](C)C(=O)[C@H](C)[C@H]2N(CCCOC(=O)Nc3ccc(C(F)(F)F)cc3)C(=O)O[C@]12C,< 0.03,1,0.125,0.125,0.125,< 0.03,0.25,0.06,0.125,0.03,< 0.03,0.125,0.125,0.06,4,–,16,19.6,–,–,MIC (Enterococcus faecium): 16 µg/mL
CC[C@H]1OC(=O)[C@@](C)(F)C(=O)[C@H](C)[C@@H](O[C@@H]2O[C@H](C)C[C@H](N(C)C)[C@H]2O)[C@](C)(OC)C[C@@H](C)C(=O)[C@H](C)[C@H]2N(CCCOC(=O)Nc3cccc4ccccc34)C(=O)O[C@]12C,< 0.03,< 0.03,< 0.03,< 0.03,< 0.03,< 0.03,0.125,< 0.03,< 0.03,< 0.03,< 0.03,< 0.03,< 0.03,< 0.03,4,4,–,29.4,< 0.03,<4,Ratio (Streptococcus pneumoniae [20]): <4; Ratio [21]: 4; Ratio [22]: 4; Ratio [23]: 4; Ratio [24]: 4; Ratio [25]: 4; Ratio [26]: 4; Ratio (Streptococcus pneumoniae [27]): <4; MIC (Enterococcus faecium): 16 µg/mL; Activity (Escherichia coli): Active
